Experimental data published in patent US8030453B2, “Methods of making an antibody that binds a chemerin polypeptide” (Euroscreen S.A., priority 2001, dated 2011).
Where two headings read alike, the source gives them in different places. Peptide text beside a SMILES is read from it.

How the values were obtained:
ChemerinR = target: T1, ChemerinR (Homo sapiens, UniProt Q99788); assay: Calcium flux - Aequoscreen assay; assay type: cell-based
T1 construct: This fragment was subcloned into the pcDNA3 (Invitrogen) vector; expressed in transfected cells; CHO-K1 elsewhere)
T1 sequence (Q99788 3-373): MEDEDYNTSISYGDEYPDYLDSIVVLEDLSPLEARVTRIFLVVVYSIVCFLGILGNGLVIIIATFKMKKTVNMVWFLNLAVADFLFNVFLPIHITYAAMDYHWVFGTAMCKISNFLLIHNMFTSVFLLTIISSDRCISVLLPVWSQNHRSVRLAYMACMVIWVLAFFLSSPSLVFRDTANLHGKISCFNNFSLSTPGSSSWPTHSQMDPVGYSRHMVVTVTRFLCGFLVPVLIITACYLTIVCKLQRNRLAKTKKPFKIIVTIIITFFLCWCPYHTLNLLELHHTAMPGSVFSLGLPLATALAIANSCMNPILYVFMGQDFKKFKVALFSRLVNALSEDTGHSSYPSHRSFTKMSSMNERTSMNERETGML
Procedure: ChemerinR expressing clones were transfected to coexpress mithochondrial apoaequorin and Gα16. Cells in mid-log phase, grown in media without antibiotics 18 hours prior to the test, were detached by gentle flushing with PBS-EDTA (5 mM EDTA), recovered by centrifugation and resuspended in “BSA medium” (DMEM/HAM's F12 with HEPES, without phenol red+0.1% BSA). Cells were then counted, centrifuged and resuspended in a 15 ml Falcon tube at a concentration of 1×10^6 cells/ml.
The Falcon tube, wrapped in aluminium foil, was then placed on a vertical rotating wheel and incubated at room temperature (temperature should be maintained below 22° C.) overnight in order to reconstitute active aequorin.
Cells were then diluted 1/10 in “BSA-medium” and incubated as described above for 60 min. Reference ligands were diluted in “BSA-medium” and distributed in a 96-well plate (50 μl/well). For each measurement, 50 μl of cells (i.e. 5 000 cells) were injected into each well of the plate containing the ligands, and the emitted light is recorded (FDSS, Hamamatsu) during 20 seconds following cells injection. Results were expressed as Relative Light Units (RLU).
The intensity of the emitted light was integrated, yielding for each well one value representative of the emitted light.

[1] = target: T2, ChemerinR expressing CHO-K1 cells (Homo sapiens, UniProt Q99788); assay: competition binding assay with 125I-[…] tracer; conditions: mean±s.e.m for 3 independent experiments
T2 construct: This fragment was subcloned into the pcDNA3 (Invitrogen) vector; expressed in transfected cells; host or cells: CHO-K1
T2 sequence (Q99788 3-373): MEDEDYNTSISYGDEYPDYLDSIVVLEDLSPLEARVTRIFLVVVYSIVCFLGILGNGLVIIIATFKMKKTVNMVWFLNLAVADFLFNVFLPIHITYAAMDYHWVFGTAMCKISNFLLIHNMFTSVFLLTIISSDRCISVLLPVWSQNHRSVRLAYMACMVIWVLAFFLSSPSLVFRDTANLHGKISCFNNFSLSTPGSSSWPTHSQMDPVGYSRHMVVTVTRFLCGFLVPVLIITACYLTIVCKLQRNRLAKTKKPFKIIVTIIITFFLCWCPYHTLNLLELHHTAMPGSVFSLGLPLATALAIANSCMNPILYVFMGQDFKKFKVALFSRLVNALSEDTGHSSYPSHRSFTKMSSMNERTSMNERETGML
Procedure: ChemerinR expressing CHO-K1 cells were collected from plates with PBS supplemented with 5 mM EDTA, gently pelleted for 2 min at 1000×g, and resuspended in binding buffer (50 mM HEPES, pH 7.4, 1 mM CaCl2, 5 mM MgCl2, 0.5% BSA). […] Total binding was measured in the absence of competitor, and nonspecific binding was measured in the presence of a 100-fold excess of unlabeled ligand. Samples were incubated for 90 min at 27° C. and then bound tracer was separated by filtration through GF/B filters presoaked in 0.5% BSA. Filters were counted in a […]-scintillation counter. Binding parameters were determined with the PRISM software (Graphpad Software) using nonlinear regression applied to a one-site competition model.

[2] = target: T3, human ChemerinR (ChemR23) expressed in CHO-K1 cells (Homo sapiens, UniProt Q99788); assay: aequorin-based intracellular Ca2+ release assay; assay type: cell-based
T3 construct: This fragment was subcloned into the pcDNA3 (Invitrogen) vector; expressed in transfected cells; host or cells: CHO-K1 (co-expressing mitochondrial apoaequorin and Galpha16)
T3 sequence (Q99788 3-373): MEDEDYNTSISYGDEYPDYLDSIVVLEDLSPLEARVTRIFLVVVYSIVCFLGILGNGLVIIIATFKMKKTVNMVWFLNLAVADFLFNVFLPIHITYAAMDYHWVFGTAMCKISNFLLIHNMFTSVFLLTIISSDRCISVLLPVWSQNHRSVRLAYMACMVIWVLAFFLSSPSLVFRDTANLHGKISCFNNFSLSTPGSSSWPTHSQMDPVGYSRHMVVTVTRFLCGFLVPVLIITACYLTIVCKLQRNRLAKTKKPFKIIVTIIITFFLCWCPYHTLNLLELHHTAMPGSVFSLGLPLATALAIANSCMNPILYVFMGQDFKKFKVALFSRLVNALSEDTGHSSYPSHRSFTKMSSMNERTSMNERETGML
Procedure: Briefly, ChemerinR-expressing clones are transfected to coexpress mitochondrial apoaequorin and Gα16. Cells are incubated with 5 μM Coelenterazine H (Molecular Probes) for 4 hours at room temperature, washed in DMEM-F12 culture medium and resuspended at a concentration of 0.5×10^6 cells/ml. Cells are then mixed with test agonist peptides and light emission by the aequorin is recorded with a luminometer for 30 sec. Results are expressed as Relative Light Units (RLU). Controls include assays using membranes isolated from cells not expressing ChemerinR (mock-transfected), in order to exclude possible non-specific effects of the candidate compound.
ChemerinR-expres sing clones have been obtained by transfection of CHO-K1 cells to coexpressing mitochondrial apoaequorin and Gα16, limiting dilution and selection by northern blotting. Positive clones were used for screening with human ovarian cancer ascites extracts prepared as described above. […] Briefly, cells were collected from plates in PBS containing 5 mM EDTA, pelleted and resuspended at 5×10^6 cells/ml in DMEM-F12 medium. Cells were incubated with 5 μM Coelenterazine H (Molecular Probes) for 4 hours at room temperature. Cells were then washed in DMEM-F12 medium and resuspended at a concentration of 0.5×10^6 cells/ml. Cells were then mixed with test agonist peptides or plates containing tissue extracts and the light emission was recorded for 30 sec using a Microlumat luminometer (Perkin Elmer). Results are expressed as Relative Light Units (RLU).

[3] = truncated Chemerin peptides, values given in μM, read-out: Mean EC50

CC(C)C[C@H](NC(=O)[C@@H](N)Cc1ccccc1)C(=O)N1CCC[C@H]1C(=O)NCC(=O)N[C@@H](CCC(N)=O)C(=O)N[C@@H](Cc1ccccc1)C(=O)N[C@@H](C)C(=O)N[C@@H](Cc1ccccc1)C(=O)N[C@@H](CO)C(=O)O (H-FLPGQFAFS-OH; N-terminus and C-terminus assumed)
EC50 (ChemerinR): 29.1 nM

CC[C@H](C)[C@H](N)C(=O)N[C@@H](Cc1ccccc1)C(=O)N1CCC[C@H]1C(=O)NCC(=O)N[C@@H](CCC(N)=O)C(=O)N[C@@H](Cc1ccccc1)C(=O)N[C@@H](C)C(=O)N[C@@H](Cc1ccccc1)C(=O)N[C@@H](CO)C(=O)O (H-IFPGQFAFS-OH; N-terminus and C-terminus assumed)
EC50 (ChemerinR): 25.8 nM

CC(C)C[C@H](N)C(=O)N[C@@H](Cc1ccccc1)C(=O)N1CCC[C@H]1C(=O)NCC(=O)N[C@@H](CCC(N)=O)C(=O)N[C@@H](Cc1ccccc1)C(=O)N[C@@H](C)C(=O)N[C@@H](Cc1ccccc1)C(=O)N[C@@H](CO)C(=O)O (H-LFPGQFAFS-OH; N-terminus and C-terminus assumed)
EC50 (ChemerinR): 66.3 nM

C[C@H](NC(=O)[C@H](Cc1ccccc1)NC(=O)[C@H](CCC(N)=O)NC(=O)CNC(=O)[C@@H]1CCCN1C(=O)[C@H](Cc1ccccc1)NC(=O)[C@@H](N)Cc1ccc(O)cc1)C(=O)N[C@@H](Cc1ccccc1)C(=O)N[C@@H](CC(=O)O)C(N)=O (H-YFPGQFAFD-NH2; N-terminus assumed)
EC50 (ChemerinR): 4.3 nM

C[C@H](NC(=O)[C@H](Cc1ccccc1)NC(=O)[C@H](CCC(N)=O)NC(=O)CNC(=O)[C@@H]1CCCN1C(=O)[C@H](Cc1ccccc1)NC(=O)[C@H](Cc1ccccc1)NC(=O)[C@H](Cc1ccccc1)NC(=O)[C@H](CO)NC(=O)[C@H](Cc1c[nH]cn1)NC(=O)[C@@H](N)Cc1ccc(O)cc1)C(=O)N[C@@H](Cc1ccccc1)C(=O)N[C@@H](CO)C(=O)O (H-YHSFFFPGQFAFS-OH; N-terminus and C-terminus assumed)
Ki ([1]; Ki): 12.1 ± 4.97 nM | Ki ([1]; pKi): 11.2 nM | EC50 [2]: 0.028 µM

CC(C)[C@H](NC(=O)[C@@H](N)Cc1ccc(O)cc1)C(=O)N1CCC[C@H]1C(=O)NCC(=O)N[C@@H](CCC(N)=O)C(=O)N[C@@H](Cc1ccccc1)C(=O)N[C@@H](C)C(=O)N[C@@H](Cc1ccccc1)C(=O)N[C@@H](CO)C(=O)O (H-YVPGQFAFS-OH; N-terminus and C-terminus assumed)
EC50 (ChemerinR; read-out: EC50): 43.8 nM

C[C@H](NC(=O)[C@H](C)NC(=O)[C@H](Cc1ccccc1)NC(=O)[C@H](CCC(N)=O)NC(=O)CNC(=O)[C@@H]1CCCN1C(=O)[C@H](Cc1ccccc1)NC(=O)[C@@H](N)Cc1ccc(O)cc1)C(=O)N[C@@H](CO)C(=O)O [Human [Ala-8] Chemerin-9] (H-YFPGQFAAS-OH; N-terminus and C-terminus assumed)
EC50 [2, 3]: 38 ± 7 µM

C[C@H](NC(=O)[C@H](Cc1ccccc1)NC(=O)[C@H](CCC(N)=O)NC(=O)CNC(=O)[C@@H]1CCCN1C(=O)[C@H](Cc1ccccc1)NC(=O)[C@H](Cc1ccc(O)cc1)NC(=O)[C@H](Cc1ccccc1)NC(=O)[C@H](CO)NC(=O)[C@H](Cc1c[nH]cn1)NC(=O)[C@@H]1CCCN1C(=O)[C@H](CC(=O)O)NC(=O)[C@H](CCC(=O)O)NC(=O)CNC(=O)[C@H](C)NC(=O)[C@H](CCCNC(=N)N)NC(=O)[C@@H](N)CCC(N)=O)C(=O)N[C@@H](Cc1ccccc1)C(=O)N[C@@H](CO)C(=O)N[C@@H](CCCCN)C(=O)O [Human [Lys20] Chemerin-19] (H-QRAGEDPHSFYFPGQFAFSK-OH)
EC50 [2]: 170 µM

C[C@H](NC(=O)[C@H](CCCNC(=N)N)NC(=O)[C@@H](N)CCC(N)=O)C(=O)NCC(=O)N[C@@H](CCC(=O)O)C(=O)N[C@@H](CC(=O)O)C(=O)N1CCC[C@H]1C(=O)N[C@@H](Cc1c[nH]cn1)C(=O)N[C@@H](CO)C(=O)N[C@@H](Cc1ccccc1)C(=O)N[C@@H](Cc1ccc(O)cc1)C(=O)N[C@@H](Cc1ccccc1)C(=O)N1CCC[C@H]1C(=O)NCC(=O)N[C@@H](CCC(N)=O)C(=O)N[C@@H](Cc1ccccc1)C(=O)O [Human [ΔAla17Phe18Ser19] Chemerin-19] (H-QRAGEDPHSFYFPGQF-OH)
EC50 [2]: 130 ± 10 µM

C[C@H](NC(=O)[C@H](Cc1ccccc1)NC(=O)[C@H](CCC(N)=O)NC(=O)CNC(=O)[C@@H]1CCCN1C(=O)[C@H](Cc1ccccc1)NC(=O)[C@H](Cc1ccc(O)cc1)NC(=O)[C@H](Cc1ccccc1)NC(=O)[C@H](CO)NC(=O)[C@H](Cc1c[nH]cn1)NC(=O)[C@@H]1CCCN1C(=O)[C@H](CC(=O)O)NC(=O)[C@H](CCC(=O)O)NC(=O)CNC(=O)[C@H](C)NC(=O)[C@H](CCCNC(=N)N)NC(=O)[C@@H](N)CCC(N)=O)C(=O)O [Human [ΔPhe18Ser19] Chemerin-19] (H-QRAGEDPHSFYFPGQFA-OH; N-terminus and C-terminus assumed)
EC50 [2]: 220 µM

C[C@H](NC(=O)[C@H](Cc1ccccc1)NC(=O)[C@H](CCC(N)=O)NC(=O)CNC(=O)[C@@H]1CCCN1C(=O)[C@H](Cc1ccccc1)NC(=O)[C@H](Cc1ccc(O)cc1)NC(=O)[C@H](Cc1ccccc1)NC(=O)[C@H](CO)NC(=O)[C@H](Cc1c[nH]cn1)NC(=O)[C@@H]1CCCN1C(=O)[C@H](CC(=O)O)NC(=O)[C@H](CCC(=O)O)NC(=O)CNC(=O)[C@H](C)NC(=O)[C@H](CCCNC(=N)N)NC(=O)[C@@H](N)CCC(N)=O)C(=O)N[C@@H](Cc1ccccc1)C(=O)O [Human [ΔSer19] Chemerin-19] (H-QRAGEDPHSFYFPGQFAF-OH; N-terminus and C-terminus assumed)
EC50 [2]: 0.097 ± 0.013 µM

CC(C)C[C@H](NC(=O)[C@H](C)NC(=O)[C@H](CCCCN)NC(=O)[C@H](CO)NC(=O)[C@H](Cc1ccccc1)NC(=O)[C@H](C)NC(=O)[C@H](Cc1ccccc1)NC(=O)[C@H](CCC(N)=O)NC(=O)CNC(=O)[C@@H]1CCCN1C(=O)[C@H](Cc1ccccc1)NC(=O)[C@H](Cc1ccc(O)cc1)NC(=O)[C@H](Cc1ccccc1)NC(=O)[C@H](CO)NC(=O)[C@H](Cc1c[nH]cn1)NC(=O)[C@@H]1CCCN1C(=O)[C@H](CC(=O)O)NC(=O)[C@H](CCC(=O)O)NC(=O)CNC(=O)[C@H](C)NC(=O)[C@H](CCCNC(=N)N)NC(=O)[C@@H](N)CCC(N)=O)C(=O)N1CCC[C@H]1C(=O)N[C@@H](CCCNC(=N)N)C(=O)N[C@@H](CO)C(=O)O [Human prochemerin-25] (H-QRAGEDPHSFYFPGQFAFSKALPRS-OH; N-terminus and C-terminus assumed)
EC50 [2, 3]: 160 ± 21 µM

QRAGEDPHSFYFPGQ
Mean EC50 ([2]; result in words): inactif

B1: truncated PreprocHEMERIN: 157 amino acid truncated Preprochemerin polypeptide (SEQ ID NO: 73, FIG. 16) (protein, listed as Homo sapiens)
chain: MRRLLIPLALWLGAVGVGVAELTEAQRRGLQVALEEFHKHPPVQWAFQETSVESAVDTPFPAGIFVRLEFKLQQTSCRKRDWKKPECKVRPNGRKRKCLACIKLGSEDKVLGRLVHCPIETQVLREAEEHQETQCLRVQRAGEDPHSFYFPGQFAFS
EC50 ([2]; CHO cells expressing ChemerinR, aequorin assay, read-out: EC50 for activation of ChemerinR): 0.00427 µM
